This is an account of results in ChEMBL document CHEMBL5620368, “Molecular-level strategic goals and repressors in Leishmaniasis - Integrated data to accelerate target-based heterocyclic scaffolds” (Eur J Med Chem, 2023).

In brackets after ≈: the same amount, converted by molar mass.

In one data set the test system is Leishmania tropica. Description: Antileishmanial activity against Leishmania tropica promastigote assessed as inhibition of parasite growth incubated for 72 hrs by MTT assay. It is filed as functional, organism-based. Background: Formazan colour is commonly taken as a measure of viable cells.
Data set [1] deals with Leishmania donovani. As to the kind of experiment: Antileishmanial activity against Leishmania donovani promastigotes assessed as reduction in parasitic growth by MTT assay. It is filed as functional, organism-based.
Data set [2] can be described thus: Cytotoxicity against mouse Peritoneal macrophages assessed as reduction in cell viability incubated for 24 hrs by MTT assay. It is filed as toxicity, cell-based, Peritoneal macrophage.
For data set [3], the system named is Leishmania infantum. Description: Antileishmanial activity against Leishmania infantum promastigotes assessed as reduction in cell viability incubated for 24 hrs by propidium iodide staining based flow cytometry assay. The data set is classed as functional, organism-based. Background: In flow cytometry, cells or beads pass a laser one at a time.
In data set [4] the test system is Leishmania infantum. Description: Antiprotozoal activity against Leishmania infantum intracellular amastigotes infected in human THP-1 derived macrophage cells assessed as reduction in parasite viability measured for 72 hrs by resazurin/alamar blue fluorometric assay. The data set is classed as functional, organism-based. As to conditions: THP-1, 72 h. (In general: Alamar Blue is a resazurin reagent that responds to reducing activity.)

Data set [5] can be described thus: Inhibition of recombinant Leishmania mexicana Trypanothione reductase.
Data set [6] concerns Leishmania donovani. Description: Antileishmanial activity against Leishmania donovani promastigotes assessed as reduction in parasite growth incubated for 48 hrs by MTT assay. The data set is classed as functional, organism-based.
Data set [7] has as its system Leishmania amazonensis. Description: Antileishmanial activity against axenic amastigote form of patient derived Leishmania amazonensis MHOM/BR/77/LTB001 assessed as parasite growth inhibition incubated for 24 hrs. It is filed as functional, organism-based. The following applies: MHOM/BR/77/LTB001, 24 h.
Data set [8] deals with Leishmania amazonensis. Description: Antileishmanial activity against Leishmania amazonensis promastigotes assessed as parasite growth inhibition incubated for 24 hrs. It is filed as functional, organism-based.
Data set [9] has as its system Leishmania donovani. As to the kind of experiment: Antileishmanial activity against Leishmania donovani amastigotes assessed as parasite growth inhibition incubated for 72 hrs by MTS assay. The data set is classed as functional, organism-based.
In the next data set the test system is Leishmania major. Description: Antileishmanial activity against Leishmania major amastigotes assessed as reduction in parasite growth incubated for 72 hrs by MTS assay. It is filed as functional, organism-based.
Data set [10] in a line: Inhibition of Leishmania infantum Trypanothione reductase expressed in Escherichia coli BL21 (DE3) using trypanothione as substrate preincubated for 3 mins followed NADPH addition by Dixon plot analysis.
The target of a further data set is Trypanothione reductase (Leishmania donovani, UniProt P39050). As to the kind of experiment: Inhibition of Leishmania donovani Trypanothione reductase.
The subject of data set [11] is Leishmania amazonensis. As to the kind of experiment: Antileishmanial activity against Leishmania amazonensis intracellular amastigotes assessed as parasite growth inhibition at 109 uM incubated for 96 hrs relative to control. It is filed as functional. Details: scale not given: the % may be the effect or the level left.
Data set [12] deals with Leishmania braziliensis. As to the kind of experiment: Antileishmanial activity against Leishmania braziliensis MHOM/Br/75/M2903 promastigotes assessed as reduction in parasite growth incubated for 72 hrs by MTT assay. It is filed as functional, organism-based. The following applies: MHOM/Br/75/M2903, 72 h.
The subject of data set [13] is Leishmania braziliensis. Description: Antileishmanial activity against Leishmania braziliensis MHOM/Br/75/M2903 amastigotes assessed as reduction in parasite growth incubated for 72 hrs by MTT assay. The data set is classed as functional, organism-based. As to conditions: MHOM/Br/75/M2903, 72 h.

Chain of Trypanothione reductase (P39050 whole entry): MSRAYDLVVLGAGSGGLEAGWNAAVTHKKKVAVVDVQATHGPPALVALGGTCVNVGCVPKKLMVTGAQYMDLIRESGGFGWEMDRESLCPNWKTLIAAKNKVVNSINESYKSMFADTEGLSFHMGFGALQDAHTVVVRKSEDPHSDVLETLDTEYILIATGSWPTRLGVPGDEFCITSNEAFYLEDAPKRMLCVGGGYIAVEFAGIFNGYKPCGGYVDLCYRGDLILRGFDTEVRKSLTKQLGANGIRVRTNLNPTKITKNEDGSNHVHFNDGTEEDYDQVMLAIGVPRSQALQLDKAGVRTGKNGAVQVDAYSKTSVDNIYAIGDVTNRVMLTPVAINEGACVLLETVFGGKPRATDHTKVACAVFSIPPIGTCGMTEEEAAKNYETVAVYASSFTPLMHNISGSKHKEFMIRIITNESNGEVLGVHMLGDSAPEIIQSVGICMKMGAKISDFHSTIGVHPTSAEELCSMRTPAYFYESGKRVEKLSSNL

For orientation: IC50 means the point on the concentration scale where inhibition reaches its midpoint. With `C[C@@H]1O[C@@H](OC[C@H]2O[C@@H](Oc3c(-c4ccc(O)c(O)c4)oc4cc(O)cc(O)c4c3=O)[C@H](O)[C@@H](O)[C@@H]2O)[C@H](O)[C@H](O)[C@H]1O` [RUTIN], the IC50 in the data set with Leishmania tropica is 91.2 µg/mL (≈ 149 µM).

Turning to `COC(=O)c1ccc(C2OC(C)(C)C3CC(=O)C(C)C2C3)cc1` (stereo unspecified), the IC50 with Leishmania donovani [1] is 4.9 µM. Take `CC/C=C\C/C=C\CCC/C=C/C=C/C=C\CCCC(=O)O`: in [2], the IC50 at 24 h is 2 µM. On to `CC[C@@]1(O)C(=O)OCc2c1cc1n(c2=O)Cc2c-1nc1ccccc1c2/C=N/OC(C)(C)C` [GIMATECAN], for which the half-maximal inhibitory concentration (IC50) in the data set on Leishmania infantum [3] came out at 1.73 µM; with Leishmania infantum [4] it was 0.1 µM. On to `O=C(NCc1ccc2ncccc2c1)c1cnn(-c2ncc3c(n2)-c2ccccc2CCC3)c1C1CC1`, for which the IC50 in [5] was 58 µM.

On to `CC[C@H](CC[C@@H](C)[C@H]1CC[C@H]2[C@@H]3CC=C4C[C@@H](O)CC[C@]4(C)[C@H]3CC[C@]12C)C(C)C` [BETA-SITOSTEROL], for which the IC50 with Leishmania donovani [6] was 17.7 µg/mL (≈ 42.7 µM). For `CC1=CC(=O)C[C@H]2[C@H]1CC[C@@H](C)C21C[C@H](c2ccoc2)OC1=O` (stereo partly specified), the IC50 with Leishmania amazonensis [7] amounted to 20 µg/mL (≈ 63.6 µM); in the data set on Leishmania amazonensis [8], 6.3 µg/mL (≈ 20 µM).

In the case of `C/C=C(\CC[C@@H](C)[C@H]1CC[C@H]2[C@@H]3CC=C4C[C@@H](O)CC[C@]4(C)[C@H]3CC[C@]12C)C(C)C` [FUCOSTEROL], the IC50 in the data set on Leishmania donovani [9] turned out to be 18.5 µg/mL (≈ 44.8 µM); in the data set on Leishmania major, 19 µg/mL (≈ 46 µM). `Cc1cc(NC(=O)c2ccc([N+](=O)[O-])s2)ccc1Br` displayed an IC50 in data set [10] of 0.19 µM. On to `O[C@H](CC1c2ccccc2-c2ccccc21)CN1CCN(C[C@H](O)C[C@@H]2c3ccc(Br)cc3-c3cc(Br)cc(Br)c32)CC1`, for which the IC50 against Trypanothione reductase is 98.4 µM. For the compound `C=C(C)[C@@H]1CC[C@@]2(C)[C@H]1[C@H]1CC[C@@H]3[C@@]4(C)CC[C@H](O)C(C)(C)[C@@H]4[C@H](O)C[C@@]3(C)[C@]1(C)C[C@@H]2O`, the Activity in the data set with Leishmania amazonensis [11] was found to be 80%. In the case of `Oc1ccc(/C=N\Nc2ccccc2)c(O)c1`, the IC50 in the data set with Leishmania braziliensis [12] turned out to be 7.3 µM; in the data set with Leishmania braziliensis [13], 21.7 µM.
